Here are results for 59 molecules from patent US11198695B2, “Fused ring derivative having MGAT-2 inhibitory activity” (Shionogi & Co., Ltd., priority 2017, dated 2021).

pIC50: −log10 of the molar value.

Sequence of recombinant human MGAT2 (Q3SYC2 whole entry): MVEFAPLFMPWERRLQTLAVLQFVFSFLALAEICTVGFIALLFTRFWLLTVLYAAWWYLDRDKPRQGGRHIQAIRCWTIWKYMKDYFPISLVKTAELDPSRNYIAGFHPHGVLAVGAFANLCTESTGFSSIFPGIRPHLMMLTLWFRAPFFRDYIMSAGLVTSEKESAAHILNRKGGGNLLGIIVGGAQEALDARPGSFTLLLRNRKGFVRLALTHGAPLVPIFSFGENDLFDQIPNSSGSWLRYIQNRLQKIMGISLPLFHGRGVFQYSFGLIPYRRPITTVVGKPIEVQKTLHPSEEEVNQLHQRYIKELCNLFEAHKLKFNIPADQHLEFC

In the experiment the target is recombinant human MGAT2 (Homo sapiens (Human), UniProt Q3SYC2). The experiment can be described thus: Measurement of human MGAT2 inhibitory activity. Type of experiment: biochemical. As to conditions: read-out: IC50 (concentration exhibiting 50% enzyme inhibition), Table 53. The method, boiled down:
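Membrane fraction of Sf9 cells expressing N-terminally Flag-tagged full-length human MGAT2, incubated 1 h at room temperature in 100 mmol/L phosphate pH 7.4 with 2 mmol/L DTT. The substrate solution held 30 μmol/L 2-oleoylglycerol and 10 μmol/L oleoyl-CoA. Diolein product was quantified by RapidFire ESI Q-TOF MS against diolein-d5 internal standard; % inhibition was set relative to with/without-enzyme controls.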
With `Cc1ccc(-n2nc3c(c2NC(=O)CS(C)(=O)=O)C(=O)N[C@](C)(c2ccc(OCC(C)(F)F)cc2F)C3)nc1` [II-208], the pIC50 was 8.51.
For `Cc1ccc(-n2nc3c(c2C(=O)NCCS(N)(=O)=O)C(=O)N[C@@]2(CCc4cc(OCC(F)(F)F)ccc42)C3)cc1F` [II-209] the value was 7.02; for `Cc1ccc(-n2nc3c(c2C(=O)NS(=O)(=O)c2ccccc2)C(=O)N[C@@]2(CCc4cc(OCC(F)(F)F)ccc42)C3)nc1` [II-210], 7.05; for `COCCS(=O)(=O)NC(=O)c1c2c(nn1-c1ccc(C)cn1)C[C@]1(CCc3cc(OCC(F)(F)F)ccc31)NC2=O` [II-211], 7.48.
In the case of `Cc1ccc(-n2nc3c(c2C(=O)NS(=O)(=O)CCC(F)(F)F)C(=O)N[C@@]2(CCc4cc(OCC(F)(F)F)ccc42)C3)nc1` [II-212], the pIC50 is 7.33.
Next, `Cc1ccc(-n2nc3c(c2C(=O)NS(=O)(=O)Cc2ccccc2)C(=O)N[C@@]2(CCc4cc(OCC(F)(F)F)ccc42)C3)nc1` [II-213]: 7.23.
With `CS(=O)(=O)NC(=O)c1c2c(nn1-c1ccc(C#N)cn1)C[C@]1(CCc3cc(OCC(F)(F)F)ccc31)NC2=O` [II-214], the pIC50 is 7.58.
On to `N#Cc1ccc(-n2nc3c(c2C(=O)NS(=O)(=O)c2ccccc2)C(=O)N[C@@]2(CCc4cc(OCC(F)(F)F)ccc42)C3)nc1` [II-215], for which the pIC50 is 7.11.
Take `COCCS(=O)(=O)NC(=O)c1c2c(nn1-c1ccc(C#N)cn1)C[C@]1(CCc3cc(OCC(F)(F)F)ccc31)NC2=O` [II-216]: the pIC50 was 6.37.
For the molecule `N#Cc1ccc(-n2nc3c(c2C(=O)NS(=O)(=O)CCC(F)(F)F)C(=O)N[C@@]2(CCc4cc(OCC(F)(F)F)ccc42)C3)nc1` [II-217], the pIC50 is 7.16.
For `N#Cc1ccc(-n2nc3c(c2C(=O)NS(=O)(=O)Cc2ccccc2)C(=O)N[C@@]2(CCc4cc(OCC(F)(F)F)ccc42)C3)nc1` [II-218] the value was 7.17; for `Cc1ccc(-n2nc3c(c2C(=O)NCC#N)C(=O)N[C@@]2(CCc4cc(OCC(F)(F)F)ccc42)C3)cc1F` [II-219], 7.08; for `Cc1ccc(-n2nc3c(c2C(=O)NCC2(CO)CC2)C(=O)N[C@@]2(CCc4cc(OCC(F)(F)F)ccc42)C3)cc1F` [II-220], 8.09.
For `Cc1ccc(-n2nc3c(c2C(=O)NCC2(O)CC2)C(=O)N[C@@]2(CCc4cc(OCC(F)(F)F)ccc42)C3)cc1F` [II-221] the value was 8.16; for `Cc1ccc(-n2nc3c(c2C(=O)NCC2(C#N)CC2)C(=O)N[C@@]2(CCc4cc(OCC(F)(F)F)ccc42)C3)cc1F` [II-222], 7.27; for `Cc1ccc(-n2nc3c(c2C(=O)NS(C)(=O)=O)C(=O)N[C@@]2(CCc4cc(OCC(F)(F)F)ccc42)C3)cc1F` [II-223], 7.28.
As for `CS(=O)(=O)CC(=O)Nc1c2c(nn1-c1ccc(F)c(F)c1)C[C@]1(CCOc3cc(C4CC4)ccc31)NC2=O` [II-224], the pIC50 is 8.66.
For the molecule `Cc1ccc(-n2nc3c(c2C(=O)NS(=O)(=O)C2CC2)C(=O)N[C@@]2(CCc4cc(OCC(F)(F)F)ccc42)C3)cc1F` [II-226], the pIC50 was 7.80.
Next, `Cc1ccc(-n2nc3c(c2C(=O)NCC(F)(F)F)C(=O)N[C@@]2(CCOc4cc(OCC(F)(F)F)ccc42)C3)nc1` [II-227]: 7.02; `Cc1ccc(-n2nc3c(c2C(=O)NCC#N)C(=O)N[C@@]2(CCOc4cc(OCC(F)(F)F)ccc42)C3)nc1` [II-228]: 7.43.
Next, `Cc1ccc(-n2nc3c(c2C(=O)NCC(N)=O)C(=O)N[C@@]2(CCOc4cc(OCC(F)(F)F)ccc42)C3)nc1` [II-229]: 7.19; `Cc1ccc(-n2nc3c(c2C(=O)NCC2(O)CC2)C(=O)N[C@@]2(CCOc4cc(OCC(F)(F)F)ccc42)C3)nc1` [II-230]: 7.85.
For `Cc1ccc(-n2nc3c(c2C(=O)NCC2(C#N)CC2)C(=O)N[C@@]2(CCOc4cc(OCC(F)(F)F)ccc42)C3)nc1` [II-231], the pIC50 was 7.01.
For `Cc1ccc(-n2nc3c(c2C(=O)NCC2(C(F)F)CC2)C(=O)N[C@@]2(CCOc4cc(OCC(F)(F)F)ccc42)C3)nc1` [II-232] the value was 7.17.
As for `Cc1ccc(-n2nc3c(c2NC(=O)CS(C)(=O)=O)C(=O)N[C@@]2(CCc4cc(C(F)(F)F)ccc42)C3)nn1` [II-234], the pIC50 was 8.26.
For `Cc1cc(-n2nc3c(c2NC(=O)CS(C)(=O)=O)C(=O)N[C@@]2(CCOc4cc(C5CC5)ccc42)C3)no1` [II-235] the value was 8.93; for `CC(C)(F)COc1ccc2c(c1)CC[C@@]21Cc2nn(CCCOC(F)(F)F)c(NC(=O)CS(C)(=O)=O)c2C(=O)N1` [II-236], 8.27; for `CS(=O)(=O)CC(=O)Nc1c2c(nn1CCCOC(F)(F)F)C[C@@]1(CCc3cc(OCC(F)(F)C(F)F)ccc31)NC2=O` [II-237], 8.46.
Take `Cc1ccc(-n2nc3c(c2C(=O)NS(C)(=O)=O)C(=O)N[C@@]2(CCc4cc(OCC(F)(F)F)ccc42)C3)nc1` [II-238]: the pIC50 was 7.82.
Take `Cc1ccc(-n2nc3c(c2C(=O)NCC#N)C(=O)N[C@@](c2ccc(OCC(F)(F)F)cc2F)(C(F)(F)F)C3)nc1` [II-239]: the pIC50 was 8.34.
For `Cc1ccc(-n2nc3c(c2C(=O)NCC(F)(F)F)C(=O)N[C@@](c2ccc(OCC(F)(F)F)cc2F)(C(F)(F)F)C3)nc1` [II-240] the value was 7.84; for `Cc1ccc(-n2nc3c(c2C(=O)NCC(N)=O)C(=O)N[C@@](c2ccc(OCC(F)(F)F)cc2F)(C(F)(F)F)C3)nc1` [II-241], 7.61; for `Cc1ccc(-n2nc3c(c2C(=O)NCCS(N)(=O)=O)C(=O)N[C@@](c2ccc(OCC(F)(F)F)cc2F)(C(F)(F)F)C3)nc1` [II-242], 7.59.
Next, `N#CCNC(=O)c1c2c(nn1-c1ccc(C#N)cn1)C[C@@]1(CCc3cc(OCC(F)(F)F)ccc31)NC2=O` [II-243]: 8.76; `N#Cc1ccc(-n2nc3c(c2C(=O)NCC(F)(F)F)C(=O)N[C@]2(CCc4cc(OCC(F)(F)F)ccc42)C3)nc1` [II-244]: 8.32; `N#Cc1ccc(-n2nc3c(c2C(=O)NCC(N)=O)C(=O)N[C@]2(CCc4cc(OCC(F)(F)F)ccc42)C3)nc1` [II-245]: 7.95.
As to `N#Cc1ccc(-n2nc3c(c2C(=O)NCCS(N)(=O)=O)C(=O)N[C@]2(CCc4cc(OCC(F)(F)F)ccc42)C3)nc1` [II-246], the pIC50 was 8.43.
For `COCCS(=O)(=O)NC(=O)c1c2c(nn1-c1ccc(C)c(F)c1)C[C@]1(CCc3cc(OCC(F)(F)F)ccc31)NC2=O` [II-247] the value was 7.32.
As to `Cc1ccc(-n2nc3c(c2NC(=O)CS(C)(=O)=O)C(=O)N[C@@]2(CCOc4cc(OCC(F)(F)F)ccc42)C3)cc1F` [II-248], the pIC50 was 8.74.
With `Cc1ccc(-n2nc3c(c2C(=O)NCC2(CO)CC2)C(=O)N[C@@]2(CCOc4cc(OCC(F)(F)F)ccc42)C3)nc1` [II-249], the pIC50 is 7.87.
Next, `CS(=O)(=O)CC(=O)Nc1c2c(nn1-c1ccc(F)c(F)c1)C[C@]1(CCOc3cc(Cl)ccc31)NC2=O` [II-250]: 8.41.
As to `Cc1cc(-n2nc3c(c2C(=O)NCC#N)C(=O)N[C@@]2(CCc4cc(OCC(F)(F)F)ccc42)C3)no1` [II-251], the pIC50 is 8.00.
As to `Cc1cc(-n2nc3c(c2C(=O)NCC(F)(F)F)C(=O)N[C@@]2(CCc4cc(OCC(F)(F)F)ccc42)C3)no1` [II-252], the pIC50 was 7.65.
On to `Cc1cc(-n2nc3c(c2C(=O)NCC(N)=O)C(=O)N[C@@]2(CCc4cc(OCC(F)(F)F)ccc42)C3)no1` [II-253], for which the pIC50 is 8.37.
For `Cc1cc(-n2nc3c(c2C(=O)NCCS(N)(=O)=O)C(=O)N[C@@]2(CCc4cc(OCC(F)(F)F)ccc42)C3)no1` [II-254] the value was 7.34; for `CC(F)(F)COc1ccc2c(c1)CC[C@@]21Cc2nn(CCCOC(F)(F)F)c(NC(=O)CS(C)(=O)=O)c2C(=O)N1` [II-255], 8.56.
For `CS(=O)(=O)CC(=O)Nc1c2c(nn1-c1cc(C(F)(F)F)on1)C[C@]1(CCOc3cc(OCC(F)(F)F)ccc31)NC2=O` [II-256] the value was 8.28; for `CC(C)(C)c1cc(-n2nc3c(c2NC(=O)CS(C)(=O)=O)C(=O)N[C@@]2(CCOc4cc(OCC(F)(F)F)ccc42)C3)no1` [II-257], 9.39; for `CS(=O)(=O)CC(=O)Nc1c2c(nn1-c1ccc(C(F)F)nn1)C[C@]1(CCc3cc(OCCCC(F)(F)F)ccc31)NC2=O` [II-258], 9.55.
Turning to `CS(=O)(=O)CC(=O)Nc1c2c(nn1-c1ccc(C3CC3)nn1)C[C@]1(CCc3cc(OCCCC(F)(F)F)ccc31)NC2=O` [II-259], the pIC50 is 9.36.
For `CS(=O)(=O)CC(=O)Nc1c2c(nn1CCC1CC1)C[C@]1(CCc3c1ccc(N1CC(F)(F)C1)c3F)NC2=O` [II-260] the value was 7.85; for `CS(=O)(=O)CC(=O)Nc1c2c(nn1CCCOC(F)(F)F)C[C@@]1(CCc3cc(OCC(F)(F)C(F)(F)F)ccc31)NC2=O` [II-261], 9.00.
For `O=C1N[C@@]2(CCc3cc(OCC(F)(F)F)ccc32)Cc2nn(CCCOC(F)F)c(C(=O)NS(=O)(=O)C3CC3)c21` [II-262] the value was 8.05; for `Cc1ccc(-n2nc3c(c2NC(=O)CC#N)C(=O)N[C@@]2(CCOc4cc(OCC(F)(F)F)ccc42)C3)nc1` [II-263], 7.40.
Next, `NS(=O)(=O)CCNC(=O)c1c2c(nn1CCCOC(F)F)C[C@]1(CCc3cc(OCC(F)(F)F)ccc31)NC2=O` [II-264]: 7.79; `O=C1N[C@@]2(CCc3cc(OCC(F)(F)F)ccc32)Cc2nn(CCCOC(F)F)c(C(=O)NCC3(O)CC3)c21` [II-265]: 7.26; `Cc1cc(-n2nc3c(c2NC(=O)CS(C)(=O)=O)C(=O)N[C@@]2(CCOc4cc(Cl)ccc42)C3)no1` [II-266]: 8.74.
`Cc1cc(-n2nc3c(c2NC(=O)CS(C)(=O)=O)C(=O)N[C@@]2(CCOc4cc(CCC(F)(F)F)ccc42)C3)no1` [II-267]: the pIC50 was 9.00.
`Cc1cc(-n2nc3c(c2NC(=O)CS(C)(=O)=O)C(=O)N[C@@]2(CCc4cc(OCCCC(F)(F)F)ccc42)C3)nn1C` [II-268]: the pIC50 is 8.91.
